Data: patent publication US4016254A, “Pharmaceutical formulations” (Beecham Group Limited, priority 1972, dated 1977)

Legend:
Format in all cases: physicochemical
[1] = Flow properties: angle of repose
[2] = Bulk densities, Examples 1-14
[3] = Potency, Examples 15-56 (determined in conventional manner)
Procedure: The moisture contents of these powders were determined by the Karl Fischer method. The potency of the product was determined in conventional manner.

Angle of repose of raw material [1]: 64 °
Bulk Density [2]: 0.67
Potency of ampicillin trihydrate raw materials ([3]; raw material of Examples 15-29 and 41-48): 83%
Potency of ampicillin trihydrate raw materials ([3]; raw material of Examples 30-40): 84%
Potency of ampicillin trihydrate raw materials ([3]; raw material of Examples 49-56): 86%
Structure (SMILES): CC1(C)S[C@@H]2[C@H](NC(=O)[C@H](N)c3ccccc3)C(=O)N2[C@H]1C(=O)O [ampicillin trihydrate raw material, ampicillin trihydrate]
